Measured values taken from patent US20040102522A1, “Dosage form of sodium ibuprofen” (priority 2002, published 2004).

Assay: Water uptake (hygroscopicity) of sodium ibuprofen forms
Format: physicochemical

| Structure (SMILES) | additional water uptake on open storage (open storage over 6 months at 40° C. and 75% RH, water content 13-14% by weight) | water taken up (relative humidity 25% RH, spontaneous) |
| --- | --- | --- |
| CC(C)Cc1ccc(C(C)C(=O)O)cc1.O.[Na] (centres unmarked) [sodium ibuprofen hydrate] | did not take up additional water |  |
| CC(C)Cc1ccc(C(C)C(=O)O)cc1.[Na] (centres unmarked) [water free sodium ibuprofen, sodium ibuprofen] |  | up to 13.6 % by weight |
